Test results taken from patent publication US20100143405A1, “Immunotherapy of virus infection” (priority 2004, published 2010).

How the values were obtained:
[1] = test system: CTL epitope-specific CD8^+ T cells; design: species or system BALB/c mice; conditions: mouse, in vivo
PBMC = PBMC proliferation induced by Th epitope P25; type: cell-based, human
Excerpt: Preferably, the Th cell epitope is P25, KLIPNASLIENCTKAEL (SEQ ID No:8), from the F protein of morbillivirus (Ghosh et al, 2001). This epitope is promiscuous in all outbred dogs that have been studied by the inventors so far and also in all strains of mice and cattle examined (unpublished results). This epitope is also able to induce PBMC proliferation in at least 50% of blood samples extracted from human volunteers. The F protein is conserved across most morbilliviruses and in the case of P25 is conserved in canine distemper virus, rhinderpest and measles viruses.

Substance	antigen-specific CD8+ T cell responses compared with non-lipidated peptide [1]	antigen-specific CD8+ T cells in lung and spleen compared with non-lipidated peptide [1]	blood samples from human volunteers in which PBMC proliferation is induced (PBMC)
GALNNRFQIKGVELKS-K(Pam2CSS)-TYQRTRALV [lipopeptide]	not enhanced	more antigen-specific CD8^+ T cells	–
KLIPNASLIENCTKAEL (Morbillivirus) [P25]	–	–	at least 50%
